The text below walks through data of patent US20240262803A1, “COMPOUNDS, COMPOSITIONS AND METHODS OF TREATING DISORDERS” (Chungdu Anticancer Bioscience Ltd, priority 2021, published 2024).

The structures appear in SMILES notation. Where two headings read alike, the source gives them in different places.

Holding throughout (type): cell-based
For experiment [1], the system named is RPEMYC^H2B-GFP cells. Briefly: Mechanism-informed phenotypic screening assay (mitotic arrest, polyploidy; GE IN-Cell Analyzer 2000). As to conditions: 20 nM to 20 μM, 24, 48 or 72 hours, read-out: Min. Effective conc. for polyploidy (≥5%). On the procedure: We have Previously Developed a Mechanism-Informed Phenotypic Screening Assay to identify novel antimitotic agents (Li et al. 2019). Equipped with a prior understanding of the versatile functions of the chromosomal passenger protein (CPP) complex in orchestrating karyokinesis and cytokinesis, the screening assay is to score for phenotypes typically seen when the CPP complex is disabled. Specifically, the parameters for a positive hit are a temporary elevation of mitotic index (MI) at 24 hours of drug treatment and an accumulation of polyploid cells at 48 hours of drug treatment, indicative of mitotic arrest and cytokinetic failure respectively. These parameters exclude compounds that elicit only a prolonged arrest of cells in mitosis, a phenotype typically provoked by spindle toxins. The screening procedure is briefly summarized here. RPEMYC^H2B-GFP cells engineered to express a Histone 2B-EGFP fusion protein were passaged as batches of 96-well plates, 18-24 hours before exposure to the chemical compounds of the present disclosure at concentrations from 20 nM to 20 μM. At 24, 48 or 72 hours after initiation of treatment, cells were analyzed for either an arrest in mitosis or a change in DNA content by GE IN-Cell Analyzer 2000. As set forth in table 2 below, a value of greater than or equal to […] and less than or equal to 1.0 μM is marked e “A”; a value greater than […] and less than or equal to 10.0 μM is marked “B”; a value greater than 10.0 μM and less than or equal to 30.0 μM is marked “C”; and a value greater than 30.0 μM is marked “D.”

The subject of experiment [2] is lung cancer cell line NCI-H23. Put plainly: MTT assay of cellular proliferation, NCI-H23. The note with it: Homo sapiens, read-out: EC50: Concentration that inhibits 50% of proliferation. On the procedure: (§1) Six lung cancer cell lines (NCI-H23, NCI-H460, NCI-H596, NCI-H2170, Calu-6 and A549), two colon cancer cell lines (HCT116 and SW460), one breast cancer cell line MDA-MB-231, one gastric cancer cell line NCI-N87, one prostate cancer cell line DU145, one cervical cancer cell line Hela, and one glioblastoma cell line T98G were obtained from ATCC. The T2 HCC cell line was derived from a mouse liver cancer model initiated by a transgene of MYC (Reference). All cell lines were cultured in DMEM (Gibco, Cleveland, TN, USA) supplemented with 5% fetal bovine serum (Gibco), penicillin (100 U/mL)-streptomycin (100 μg/mL) (Gibco, Cat. No. 15140-122), 2 mM L-glutamine (Gibco, 200 mM solution, Cat. No. 25030081), and 1 mM sodium pyruvate (Gibco, 100 mM solution, Cat. No. 11360070) at 37° C. in a humidified incubator that was maintained at 5% CO2.
(§2) The MTT assay measures cellular metabolic activity as a proxy for cell viability and involves the conversion of the water-soluble yellow dye MTT [3-(4,5-dimethylthiazol-2-yl)-2,5-diphenyltetrazolium bromide] into an insoluble purple formazan by the action of mitochondrial reductase. Formazan is then solubilized and its concentration is determined by measuring the optical density (OD) value at a wavelength of 570 nm. The value is in proportional to the number of live cells with excellent linearity up to ˜10^6 cells per well. The MTT assay was used to determine the EC50 value, the concentration of a compound that leads to 50% inhibition of cellular proliferation. Briefly, cells were split when growing to the mid-Log phase. Cells in 100 μL of culture medium were seeded into each well of 96-well microplates and cultivated for 15˜24 hours to reach a confluence of 20˜30% and were then exposed to drugs at concentrations ranging from 1 nM to 10 μM. At the endpoint, 20 μL of a MTT stock solution in DMSO (5 mg/mL) was added to each well that contains […] of DMEM. The microplates were left in the cell culture incubator for 3˜4 h before subjected to solubilization and determination of formazan at A570 in a microplate reader (BioTek ELX808iu). […] Therefore, these compounds might hold a broad utility in the treatment of a large variety of human malignancies.
(In general: Tetrazolium assays rely on reduction of a dye to a coloured formazan, in cell work by metabolically active cells.)

Experiment [3] concerns lung cancer cell line A549. Put plainly: MTT assay of cellular proliferation, A549. As to conditions: Homo sapiens, read-out: EC50: Concentration that inhibits 50% of proliferation. On the procedure:
as §1, §2

The subject of experiment [4] is colon cancer cell line HCT116. Put plainly: MTT assay of cellular proliferation, HCT116. The note with it: Homo sapiens, HCT-116, read-out: EC50: Concentration that inhibits 50% of proliferation. On the procedure:
as §1, §2

For experiment [5], the system named is colon cancer cell line SW460. Briefly: MTT assay of cellular proliferation, SW460. The note with it: Homo sapiens, SW480; read-out: EC50: Concentration that inhibits 50% of proliferation. On the procedure: as §1, §2
Experiment [6] has as its system breast cancer cell line MDA-MB-231. Put plainly: MTT assay of cellular proliferation, MDA-MB-231. As to conditions: Homo sapiens, read-out: EC50: Concentration that inhibits 50% of proliferation. On the procedure:
as §1, §2

Experiment [7] concerns gastric cancer cell line NCI-N87. Put plainly: MTT assay of cellular proliferation, NCI-N87. As to conditions: Homo sapiens, read-out: EC50: Concentration that inhibits 50% of proliferation. On the procedure: as §1, §2
Experiment [8] relates to cervical cancer cell line Hela. Briefly: MTT assay of cellular proliferation, Hela. The note with it: Homo sapiens, read-out: EC50: Concentration that inhibits 50% of proliferation. On the procedure:
as §1, §2

For experiment [9], the system named is liver cancer cell line T2 HCC. Put plainly: MTT assay of cellular proliferation, T2 HCC. The note with it: Mus musculus, read-out: EC50: Concentration that inhibits 50% of proliferation. On the procedure:
as §1, §2

The test system of experiment [10] is lung cancer cell line NCI-H23. Briefly: Minimal effective concentration that elicits polyploidy, NCI-H23. The note with it: Homo sapiens, read-out: MECP: Minimal effective concentration that elicits polyploidy.
Experiment [11] concerns lung cancer cell line A549. Briefly: Minimal effective concentration that elicits polyploidy, A549. The note with it: Homo sapiens, read-out: MECP: Minimal effective concentration that elicits polyploidy.
In experiment [12] the test system is colon cancer cell line HCT116. Put plainly: Minimal effective concentration that elicits polyploidy, HCT116. The note with it: Homo sapiens, HCT-116, read-out: MECP: Minimal effective concentration that elicits polyploidy.
For another experiment, the system named is SW480. Put plainly: Minimal effective concentration that elicits polyploidy, SW480. The note with it: Homo sapiens, read-out: MECP: Minimal effective concentration that elicits polyploidy.
Experiment [13] relates to breast cancer cell line MDA-MB-231. Briefly: Minimal effective concentration that elicits polyploidy, MDA-MB-231. As to conditions: Homo sapiens, read-out: MECP: Minimal effective concentration that elicits polyploidy.
For experiment [14], the system named is cervical cancer cell line Hela. Put plainly: Minimal effective concentration that elicits polyploidy, Hela. As to conditions: Homo sapiens, read-out: MECP: Minimal effective concentration that elicits polyploidy.
Experiment [15] has as its system gastric cancer cell line NCI-N87. Put plainly: Minimal effective concentration that elicits polyploidy, NCI-N87. As to conditions: Homo sapiens, read-out: MECP: Minimal effective concentration that elicits polyploidy.
Experiment [16] deals with liver cancer cell line T2 HCC. Put plainly: Minimal effective concentration that elicits polyploidy, T2 HCC. As to conditions: Mus musculus, read-out: MECP: Minimal effective concentration that elicits polyploidy.
Experiment [17] relates to RPEMYC^H2B-GFP cells. Put plainly: Mechanism-informed phenotypic screening assay (mitotic arrest, polyploidy; GE IN-Cell Analyzer 2000). As to conditions: 20 nM to 20 μM, 24, 48 or 72 hours, read-out: Mitotic Arrest (≥5%).

For `COC(=O)c1cc(OC)cc(Oc2nccnc2-c2cccnc2)c1` [Compound 52, methyl 3-methoxy-5-((3-(pyridin-3-yl)pyrazin-2-yl)oxy)benzoate], the minimal effective concentration in the experiment with RPEMYC^H2B-GFP cells [1] is 1 µM; in experiment [10] it was 0.001 to 1 µM; in [11], 0.001 to 1 µM; in experiment [12] it was 0.001 to 1 µM; in the experiment on SW480, 0.001 to 1 µM; in [13], 0.001 to 1 µM. The minimal effective concentration was 0.001 to 1 µM in experiment [14], 0.001 to 1 µM in experiment [15], 0.001 to 1 µM in [16] and 1 µM in the experiment on RPEMYC^H2B-GFP cells [17]. Besides, the EC50 lay within 0.001 to 1 µM in experiment [2]; 1 to 10 µM in [3]; 0.001 to 1 µM in experiment [4]; 0.001 to 1 µM in [5]; 0.001 to 1 µM in [6]; 0.001 to 1 µM in [7]. Besides, the EC50 in experiment [8] and in experiment [9] was 0.001 to 1 µM each time.

`COc1cc(NC(C)=O)cc(Oc2ncccc2-c2ccnc(Cl)c2)c1` [Compound 46, N-(3-((2′-chloro-[3,4′-bipyridin]-2-yl)oxy)-5-methoxyphenyl)acetamide]: the minimal effective concentration was 1 µM in the experiment with RPEMYC^H2B-GFP cells [1]; 0.001 to 1 µM in experiment [10]; 0.001 to 1 µM in experiment [11]; 0.001 to 1 µM in [12]; 0.001 to 1 µM in the experiment with SW480; 0.001 to 1 µM in experiment [13]. In addition, the minimal effective concentration in experiment [14] is 0.001 to 1 µM; in [15] it was 0.001 to 1 µM; in [16] it was 0.001 to 1 µM; in the experiment with RPEMYC^H2B-GFP cells [17] it was 1 µM. The EC50 in experiment [2], in experiment [3], in experiment [4], in [5], in [6] and in [7] was 0.001 to 1 µM throughout. The EC50 in experiment [8] and in experiment [9] was 0.001 to 1 µM in each case.

Regarding `CNC(=O)c1cc(OC)cc(Oc2ncccc2-c2ccncc2)c1` [Compound 4, 3-([3,4′-bipyridin]-2-yloxy)-5-methoxy-N-methylbenzamide], the minimal effective concentration in the experiment with RPEMYC^H2B-GFP cells [1] is 1 µM; in experiment [10], 0.001 to 1 µM; in experiment [11], 0.001 to 1 µM; in [12], 0.001 to 1 µM; in the experiment with SW480, 0.001 to 1 µM; in experiment [13], 0.001 to 1 µM. In addition, the minimal effective concentration is 0.001 to 1 µM in experiment [14], 0.001 to 1 µM in experiment [15], 0.001 to 1 µM in experiment [16] and 1 µM in the experiment on RPEMYC^H2B-GFP cells [17]. The EC50 in experiment [2] fell in the range of 0.001 to 1 µM; in experiment [3], 0.001 to 1 µM; in experiment [4], 0.001 to 1 µM; in [5], 0.001 to 1 µM; in [6], 0.001 to 1 µM; in [7] it was 1 to 10 µM. Also, the EC50 in [8] and in [9] was 0.001 to 1 µM in each case.

Regarding `COc1cc(Oc2ncccc2-c2ccnc(OC)c2)cc(C(F)(F)F)c1` [Compound 30, 2′-methoxy-2-(3-methoxy-5-(trifluoromethyl)phenoxy)-3,4′-bipyridine], the minimal effective concentration in the experiment with RPEMYC^H2B-GFP cells [1] is 1 µM; in [10], 0.001 to 1 µM; in experiment [11], 0.001 to 1 µM; in experiment [12], 0.001 to 1 µM; in the experiment with SW480 it was 0.001 to 1 µM; in experiment [13], 0.001 to 1 µM. For the same compound, the minimal effective concentration in experiment [14] is 0.001 to 1 µM; in experiment [15], 0.001 to 1 µM; in experiment [16], 0.001 to 1 µM; in the experiment with RPEMYC^H2B-GFP cells [17] it was 1 µM. Further, the EC50 in [2], in experiment [3], in [4], in [5], in experiment [6] and in experiment [7] was 0.001 to 1 µM throughout. Also, the EC50 in experiment [8] and in experiment [9] was 0.001 to 1 µM each time.

On to `COc1cc(Oc2ncccc2-c2ccncc2)cc(-n2cncn2)c1` [Compound 12, 2-(3-methoxy-5-(1H-1,2,4-triazol-1-yl)phenoxy)-3,4′-bipyridine], for which the minimal effective concentration with RPEMYC^H2B-GFP cells [1] was 1 µM; in experiment [10] it was 0.001 to 1 µM; in experiment [11], 0.001 to 1 µM; in experiment [12] it was 0.001 to 1 µM; in the experiment on SW480 it was 0.001 to 1 µM; in experiment [13], 0.001 to 1 µM. Moreover, the minimal effective concentration is 0.001 to 1 µM in experiment [14], 0.001 to 1 µM in experiment [15], 0.001 to 1 µM in experiment [16] and 1 µM in the experiment with RPEMYC^H2B-GFP cells [17]. Also, the EC50 in experiment [2], in [3], in [4], in experiment [5], in [6] and in experiment [7] was 0.001 to 1 µM throughout. In addition, the EC50 in [8] and in experiment [9] was 0.001 to 1 µM throughout.

In the case of `COc1cc(Oc2ncccc2-c2ccnc(C)c2)cc(C(F)(F)F)c1` [Compound 40, 2-(3-methoxy-5-(trifluoromethyl)phenoxy)-2′-methyl-3,4′-bipyridine], the minimal effective concentration in the experiment with RPEMYC^H2B-GFP cells [1] was 1 µM; in [10], 0.001 to 1 µM; in experiment [11], 0.001 to 1 µM; in experiment [12], 0.001 to 1 µM; in the experiment on SW480, 0.001 to 1 µM; in experiment [13], 0.001 to 1 µM. In addition, the minimal effective concentration in [14] is 0.001 to 1 µM; in experiment [15], 0.001 to 1 µM; in experiment [16], 0.001 to 1 µM; in the experiment on RPEMYC^H2B-GFP cells [17], 1 µM. Besides, the EC50 in experiment [2], in [3], in experiment [4], in [5], in [6] and in [7] was 0.001 to 1 µM in each case. For the same compound, the EC50 in experiment [8] and in experiment [9] was 0.001 to 1 µM throughout.
